For one assay, the system named is Staphylococcus aureus. As to the kind of experiment: Antibacterial activity against methicillin-resistant Staphylococcus aureus USA300 incubated for 18 hrs by two-fold serial dilutions method. Particulars: USA300, 18 h. The format is functional.
In another assay the test system is Enterococcus faecium. Put plainly: Antibacterial activity against vancomycin-resistant Enterococcus faecium incubated for 18 hrs by two-fold serial dilutions method. The format is functional.

Converted amounts (≈) assume the structure as drawn.

What is called MIC is the lowest concentration that inhibits growth of the organism. Low values mean a more susceptible organism, high ones a less susceptible organism. In the case of `CCC(C)CC/C=C\C=C\C(=O)N[C@H](C(=O)N[C@@H]1C(=O)N[C@H](C(C)C)C(=O)N[C@@H](CCCCN)C(=O)N[C@@H](C(O)C(=O)O)C(=O)N[C@@H](CC(=O)O)C(=O)NCC(=O)N[C@H](C(C)C(=O)O)C(=O)N[C@@H](C(C)C)C(=O)N2C[C@H](C)C[C@H]2C(=O)NC1C)C(C)C(=O)O` (some centres undefined), the MIC in the assay on Staphylococcus aureus was in the range of 0.2 to 0.8 µg/mL (≈ 0.158 to 0.633 µM); against Enterococcus faecium it was 0.8 to 2 µg/mL (≈ 0.633 to 1.58 µM).

With `CC(C)CC/C=C\C=C\C(=O)N[C@H](C(=O)N[C@@H]1C(=O)N[C@H](C(C)C)C(=O)N[C@@H](CCCCN)C(=O)N[C@@H](C(O)C(=O)O)C(=O)N[C@@H](CC(=O)O)C(=O)NCC(=O)N[C@H](C(C)C(=O)O)C(=O)N[C@@H](C(C)C)C(=O)N2C[C@H](C)C[C@H]2C(=O)NC1C)C(C)C(=O)O` (some centres undefined), the MIC lay within 0.2 to 0.8 µg/mL (≈ 0.16 to 0.64 µM) against Staphylococcus aureus and 0.8 to 2 µg/mL (≈ 0.64 to 1.6 µM) in the assay on Enterococcus faecium.

The values above are taken from ChEMBL document CHEMBL4354783, “The calcium-dependent lipopeptide antibiotics: structure, mechanism, & medicinal chemistry” (2019).
